According to US7183318B2, “Substituted cyclic compounds, preparation method and pharmaceutical compositions containing them” (Les Laboratoires Servier, priority 1998, dated 2007):

| Structure (SMILES) | melting point [°C] |
| --- | --- |
| COC(=O)Nc1ccc2occ(CCNC(C)=O)c2c1 [Example 58, Methyl N-{3-[2-(acetylamino)ethyl]benzo[b]furan-5-yl}carbamate] | 138 to 140 |
| COC(=O)c1ccc2occ(CCNC(=O)C3CCCC3)c2c1 [Example 64, Methyl 3-{2-[(cyclopentylcarbonyl)amino]ethyl}1-benzofuran-5-carboxylate] | 122 to 123 |
| COC(=O)c1ccc2occ(CCNC(=O)C3CC3)c2c1 [Example 65, Methyl 3-{2-[(cyclopropylcarbonyl)amino]ethyl}-1-benzofuran-5-carboxylate] | 154 to 155 |
| NC(=O)c1ccc2occ(CCNC(=O)C3CC3)c2c1 [Example 68, 3-{2-[(Cyclopropylcarbonyl)amino]ethyl}-1-benzofuran-5-carboxamide] | 209 to 210 |
| NC(=O)c1ccc2occ(CCNC(=O)c3ccco3)c2c1 [Example 69, 3-[2-(2-Furoylamino)ethyl]-1-benzofuran-5-carboxamide] | 110 to 112 |
| CNC(=O)c1ccc2occ(CCNC(C)=O)c2c1 [Example 71, 3-[2-(Acetylamino)ethyl]-N-methyl-1-benzofuran-5-carboxamide] | 158 to 159 |
| CNC(=O)c1ccc2occ(CCNC(=O)C3CCCC3)c2c1 [Example 72, 3-{2-[(Cyclopentylcarbonyl)amino]ethyl}-N-methyl-1-benzofuran-5-carboxamide] | 170 to 171 |
| CC(=O)NCCc1coc2ccc(NC(=O)OC(C)(C)C)cc12 [Example 76, tert-Butyl 3-[2-(acetylamino)ethyl]-1-benzofuran-5-yl-carbamate] | 146 to 148 |
